Measured values: ChEMBL document CHEMBL3808327, “Natural Products as Sources of New Drugs from 1981 to 2014” (J Nat Prod, 2016)

Target: Serine/threonine-protein kinase B-raf (Homo sapiens, UniProt P15056, V600E)
Experiment: Inhibition of N-terminal his-tagged BRAF V600E mutant (448 to 723 residues) (unknown origin) expressed in Escherichia coli BL21(DE3) cells assessed as phosphorylation of biotinylated-MEK by AlphaScreen assay

Serine/threonine-protein kinase B-raf, sequence (P15056 2-766 V600E limits assumed): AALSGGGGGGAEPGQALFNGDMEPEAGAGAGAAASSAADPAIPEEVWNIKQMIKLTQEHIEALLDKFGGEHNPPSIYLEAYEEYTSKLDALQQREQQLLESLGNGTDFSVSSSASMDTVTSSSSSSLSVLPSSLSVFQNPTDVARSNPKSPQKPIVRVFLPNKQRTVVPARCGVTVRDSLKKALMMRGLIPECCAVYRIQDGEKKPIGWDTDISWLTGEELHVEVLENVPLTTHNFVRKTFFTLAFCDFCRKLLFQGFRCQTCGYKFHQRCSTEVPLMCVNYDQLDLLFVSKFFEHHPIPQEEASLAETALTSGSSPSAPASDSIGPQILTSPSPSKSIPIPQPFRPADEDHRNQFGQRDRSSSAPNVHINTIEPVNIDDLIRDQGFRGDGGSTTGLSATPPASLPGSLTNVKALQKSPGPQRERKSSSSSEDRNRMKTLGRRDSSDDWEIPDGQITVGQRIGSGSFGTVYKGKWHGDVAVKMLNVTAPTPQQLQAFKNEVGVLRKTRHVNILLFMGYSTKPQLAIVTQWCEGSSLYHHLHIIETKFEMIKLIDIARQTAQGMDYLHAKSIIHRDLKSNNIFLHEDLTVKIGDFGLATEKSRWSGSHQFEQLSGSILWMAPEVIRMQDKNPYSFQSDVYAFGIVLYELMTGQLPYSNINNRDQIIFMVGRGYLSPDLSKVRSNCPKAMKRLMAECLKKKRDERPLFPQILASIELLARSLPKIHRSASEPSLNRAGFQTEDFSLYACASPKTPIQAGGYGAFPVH

In the case of `c1ccc(Nc2c[nH]c3ncccc23)cc1`, the IC50 is reported as greater than 100 µM.
